Laboratory results reported in PMC4527756 (Bioorganic & medicinal chemistry, 2015).
Read-outs that look alike come from different tables or passages of the source.

Assays:
α4β2* nAChR [1] = molecular target: α4β2* nAChR (Rattus norvegicus, UniProt P09483+P12390); assay: radioligand binding assay, α4β2* nAChR; parameters: species or system Sprague-Dawley rat; conditions: for Measured activity scale: class of measured α4β2* Ki; for affinity for nAChR subtypes (in words): α4β2* and other nAChR subtypes tested
α4β2* nAChR [2] = conditions: [3H]cytisine, cited from earlier work; for Ki: read-out: α4β2* Ki
mouse tail-flick test = conditions: cited from earlier work
[3] = molecular target: (α1)2β1γδ ("muscle type") nAChR (Tetronarce californica, UniProt P02710+P02714+P02718); assay: radioligand binding assay, muscle type nAChR; parameters: species or system Torpedo californica
α7* nAChR = α7* nAChR (Rattus norvegicus, UniProt Q05941); assay: radioligand binding assay, α7* nAChR; parameters: species or system Sprague-Dawley rat
α7 nAChR = conditions: read-out: α7 nAChR IC50; selective α7 nAChR agonist; cited from earlier work
α4β2* nAChRs = conditions: cited from earlier work
[4] = tested on: mouse tail suspension test; conditions: cited from earlier work
α4β2* nAChR [5] = conditions: read-out: α4β2* Ki; cited from earlier work
α3β4* nAChR = α3β4* nAChR (Sus scrofa, UniProt A0A287A7Z4+O18764); assay: radioligand binding assay, α3β4* nAChR; parameters: species or system pig

α4β2* nAChR (Rattus norvegicus, UniProt P09483+P12390), sequence (P09483 31-630): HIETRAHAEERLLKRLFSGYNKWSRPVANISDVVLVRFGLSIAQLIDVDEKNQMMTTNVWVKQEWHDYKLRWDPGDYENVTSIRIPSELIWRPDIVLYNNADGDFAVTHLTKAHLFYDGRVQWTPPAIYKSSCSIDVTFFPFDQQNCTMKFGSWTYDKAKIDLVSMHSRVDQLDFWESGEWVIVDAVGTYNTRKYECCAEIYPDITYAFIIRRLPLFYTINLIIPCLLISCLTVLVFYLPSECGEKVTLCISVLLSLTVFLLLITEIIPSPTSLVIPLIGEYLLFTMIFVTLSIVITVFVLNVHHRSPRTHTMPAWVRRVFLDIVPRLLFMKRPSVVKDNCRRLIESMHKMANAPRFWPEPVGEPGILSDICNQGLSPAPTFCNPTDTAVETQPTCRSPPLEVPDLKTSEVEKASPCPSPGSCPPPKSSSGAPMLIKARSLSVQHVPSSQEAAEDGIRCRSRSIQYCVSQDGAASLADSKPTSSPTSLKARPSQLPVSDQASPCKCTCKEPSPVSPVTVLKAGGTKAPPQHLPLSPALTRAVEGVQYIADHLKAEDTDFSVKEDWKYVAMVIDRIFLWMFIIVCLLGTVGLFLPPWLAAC
α4β2* nAChR (Rattus norvegicus, UniProt P09483+P12390), sequence (P12390 25-500): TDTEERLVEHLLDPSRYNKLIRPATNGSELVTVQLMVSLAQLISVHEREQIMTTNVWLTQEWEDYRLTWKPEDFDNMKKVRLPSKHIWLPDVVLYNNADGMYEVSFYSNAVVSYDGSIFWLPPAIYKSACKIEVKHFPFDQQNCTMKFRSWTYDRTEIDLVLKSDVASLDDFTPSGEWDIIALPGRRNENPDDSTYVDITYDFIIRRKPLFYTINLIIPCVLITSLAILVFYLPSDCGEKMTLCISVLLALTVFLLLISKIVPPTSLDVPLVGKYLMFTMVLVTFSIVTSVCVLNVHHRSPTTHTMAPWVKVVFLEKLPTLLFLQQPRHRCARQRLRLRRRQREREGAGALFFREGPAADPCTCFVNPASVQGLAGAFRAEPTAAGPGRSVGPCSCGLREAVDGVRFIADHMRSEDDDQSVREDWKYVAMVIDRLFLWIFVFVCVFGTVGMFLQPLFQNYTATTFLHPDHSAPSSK
α7* nAChR, sequence (Q05941 23-502): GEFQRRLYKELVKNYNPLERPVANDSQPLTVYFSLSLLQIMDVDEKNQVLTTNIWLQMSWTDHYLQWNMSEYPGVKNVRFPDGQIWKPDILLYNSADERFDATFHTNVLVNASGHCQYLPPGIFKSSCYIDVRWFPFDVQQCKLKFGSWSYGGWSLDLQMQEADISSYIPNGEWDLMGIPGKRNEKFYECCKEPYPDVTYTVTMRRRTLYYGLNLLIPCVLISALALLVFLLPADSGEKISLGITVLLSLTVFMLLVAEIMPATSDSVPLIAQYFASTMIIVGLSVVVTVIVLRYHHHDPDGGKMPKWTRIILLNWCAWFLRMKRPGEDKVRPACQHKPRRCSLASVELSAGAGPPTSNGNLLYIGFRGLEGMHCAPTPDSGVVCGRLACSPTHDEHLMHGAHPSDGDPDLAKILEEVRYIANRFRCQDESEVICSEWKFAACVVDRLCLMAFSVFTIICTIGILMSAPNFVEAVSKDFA
(α1)2β1γδ ("muscle type") nAChR, sequence (P02718 22-522): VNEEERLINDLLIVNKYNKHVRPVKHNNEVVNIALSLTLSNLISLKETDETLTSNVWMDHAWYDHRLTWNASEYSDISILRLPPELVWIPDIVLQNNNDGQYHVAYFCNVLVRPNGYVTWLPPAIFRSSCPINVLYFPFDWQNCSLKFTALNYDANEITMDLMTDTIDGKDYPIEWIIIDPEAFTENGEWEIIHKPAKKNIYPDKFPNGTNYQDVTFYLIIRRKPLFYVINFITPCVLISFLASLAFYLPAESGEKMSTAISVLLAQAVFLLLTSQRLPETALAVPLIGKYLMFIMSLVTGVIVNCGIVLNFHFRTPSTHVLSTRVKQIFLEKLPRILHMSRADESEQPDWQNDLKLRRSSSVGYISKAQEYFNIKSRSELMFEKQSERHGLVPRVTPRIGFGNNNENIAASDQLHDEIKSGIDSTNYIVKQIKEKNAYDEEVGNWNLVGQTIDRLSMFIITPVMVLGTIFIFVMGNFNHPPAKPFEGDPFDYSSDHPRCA
(α1)2β1γδ ("muscle type") nAChR, sequence (P02714 18-506): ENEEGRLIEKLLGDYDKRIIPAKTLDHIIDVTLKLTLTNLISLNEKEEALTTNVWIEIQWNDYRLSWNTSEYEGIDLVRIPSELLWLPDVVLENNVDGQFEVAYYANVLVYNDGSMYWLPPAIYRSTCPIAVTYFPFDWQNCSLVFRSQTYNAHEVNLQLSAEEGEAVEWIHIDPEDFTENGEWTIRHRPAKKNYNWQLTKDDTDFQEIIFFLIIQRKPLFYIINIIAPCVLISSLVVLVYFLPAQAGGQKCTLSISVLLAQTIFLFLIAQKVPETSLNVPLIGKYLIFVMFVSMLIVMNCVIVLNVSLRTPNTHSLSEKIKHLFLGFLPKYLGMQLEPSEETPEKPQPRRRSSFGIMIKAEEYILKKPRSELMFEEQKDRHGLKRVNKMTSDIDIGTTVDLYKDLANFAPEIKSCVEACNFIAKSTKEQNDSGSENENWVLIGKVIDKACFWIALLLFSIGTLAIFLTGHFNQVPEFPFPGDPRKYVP
(α1)2β1γδ ("muscle type") nAChR, sequence (P02710 25-461): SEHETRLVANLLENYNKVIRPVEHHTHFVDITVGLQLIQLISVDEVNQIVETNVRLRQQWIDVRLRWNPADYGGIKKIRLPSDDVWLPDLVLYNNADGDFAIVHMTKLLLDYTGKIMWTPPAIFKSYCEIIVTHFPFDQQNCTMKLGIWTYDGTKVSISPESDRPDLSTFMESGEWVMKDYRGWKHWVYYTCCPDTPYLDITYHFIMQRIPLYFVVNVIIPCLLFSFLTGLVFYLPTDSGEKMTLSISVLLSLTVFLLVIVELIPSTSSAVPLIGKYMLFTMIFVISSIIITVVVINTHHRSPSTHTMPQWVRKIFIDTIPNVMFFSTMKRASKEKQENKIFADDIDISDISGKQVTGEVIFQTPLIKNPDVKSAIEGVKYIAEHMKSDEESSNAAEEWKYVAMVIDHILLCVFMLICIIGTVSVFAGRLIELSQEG
(α1)2β1γδ ("muscle type") nAChR, sequence (P02712 25-493, further chain): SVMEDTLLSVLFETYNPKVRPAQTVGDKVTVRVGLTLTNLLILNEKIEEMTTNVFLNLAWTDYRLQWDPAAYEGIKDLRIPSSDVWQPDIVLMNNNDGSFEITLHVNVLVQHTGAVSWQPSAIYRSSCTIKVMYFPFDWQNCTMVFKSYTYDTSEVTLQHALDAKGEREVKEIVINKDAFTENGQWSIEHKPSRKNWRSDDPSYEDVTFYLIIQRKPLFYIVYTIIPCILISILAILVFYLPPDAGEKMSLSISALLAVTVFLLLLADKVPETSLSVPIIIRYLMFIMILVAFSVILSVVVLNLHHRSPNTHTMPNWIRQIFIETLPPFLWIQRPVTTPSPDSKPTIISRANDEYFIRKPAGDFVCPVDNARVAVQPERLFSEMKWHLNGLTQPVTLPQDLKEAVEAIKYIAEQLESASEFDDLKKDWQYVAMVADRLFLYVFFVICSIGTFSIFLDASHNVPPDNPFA

SMILES: CN(C)CCOc1cncc(N2CCCCC2)c1 [Compound 24, N,N-dimethyl-2-{[5-(piperidin-1-yl)pyridin-3-yl]oxy}ethanamine]
- Measured activity scale (α4β2* nAChR [1]): + (inactive +, Ki > 1,000 nM)
- affinity for nAChR subtypes (in words) (α4β2* nAChR [1]): complete loss of affinity

SMILES: CN(C)CCOc1cccnc1 [Compound 9, N,N-dimethyl-2-(pyridin-3-yloxy)ethan-1-amine]
- Ki (α4β2* nAChR [2]; ref 23): 32.6 nM
- Ki (α4β2* nAChR [2]; ref 24): 24 nM
- In vivo activity ED50 (mouse tail-flick test): ED50 (mg/kg) = 15 (mouse tail-flick test) [24]

SMILES: CN(C)CCOc1cc(F)cc(N2CC3CNCC(C3)C2)c1 [Compound 17b, 2-(3-(3,7-diazabicyclo[3.3.1]nonan-3-yl)-5-fluorophenoxy)-N,N-dimethylethanamine]
- Ki [3]: > 1000 nM

SMILES: CN(C)CCOc1cncc(N2CCCNCC2)c1 [Compound 18a, 2-((5-(1,4-diazepan-1-yl)pyridin-3-yl)oxy)-N,N-dimethylethanamine]
- Measured activity scale (α4β2* nAChR [1]): +++ (highly active +++, Ki < 150 nM)
- Ki [3]: > 1000 nM

SMILES: CN(C)CCOc1cncc(N2CCNCC2)c1 [Compound 20a, N,N-dimethyl-2-{[5-(piperazin-1-yl)pyridin-3-yl]oxy}ethanamine]
- fold lower α4β2* affinity in comparison with compound 17a (α4β2* nAChR [1]): about 770 fold
- Measured activity scale (α4β2* nAChR [1]): +++ (highly active +++, Ki < 150 nM)
- Ki [3]: > 1000 nM

SMILES: CN(C)CCOc1cncc(N2CCC(O)CC2)c1 [Compound 26, 1-(5-(2-(dimethylamino)ethoxy)pyridin-3-yl)piperidin-4-ol]
- Measured activity scale (α4β2* nAChR [1]): ++ (moderately active ++, 150 nM < Ki < 1,000 nM)
- interaction with α7* nAChR (in words) (α7* nAChR): no activity

SMILES: CCN(CC)CCOc1ccc2c(c1)C(=O)c1cc(OCCN(CC)CC)ccc1-2 [tilorone 8, tilorone]
- IC50 (α7 nAChR): 110 nM

SMILES: CN(C)CCOc1cc(N2CC3CNCC(C3)C2)cc(F)c1F [Compound 17c, 2-(5-(3,7-diazabicyclo[3.3.1]nonan-3-yl)-2,3-difluorophenoxy)-N,N-dimethylethanamine]
- Ki [3]: > 1000 nM

SMILES: CN(C)CCOc1cncc(N2CC3CNCC(C3)C2)c1 [Compound 17a, 2-((5-(3,7-diazabicyclo[3.3.1]nonan-3-yl)pyridin-3-yl)oxy)-N,N-dimethylethanamine]
- functional activity for α4β2* nAChRs (in words) (α4β2* nAChRs): partial agonist activity
- Measured activity scale (α4β2* nAChR [1]): +++ (highly active +++, Ki < 150 nM)
- Ki [3]: > 1000 nM
- effect in the mouse tail suspension test (in words) [4]: efficacy in the mouse tail suspension test

SMILES: c1cncc(N2CCNCC2)c1 [Compound 13a]
- Ki (α4β2* nAChR [2]; ref 26): 90 nM

SMILES: CN(C)CCOc1cncc(N2CCCC2)c1 [Compound 23, N,N-dimethyl-2-{[5-(pyrrolidin-1-yl)pyridin-3-yl]oxy}ethanamine]
- Measured activity scale (α4β2* nAChR [1]): + (inactive +, Ki > 1,000 nM)
- affinity for nAChR subtypes (in words) (α4β2* nAChR [1]): complete loss of affinity

SMILES: CN(C)CCOc1cncc(N2CCC2)c1 [Compound 22, 2-{[5-(azetidin-1-yl)pyridin-3-yl]oxy}-N,N-dimethylethanamine]
- Measured activity scale (α4β2* nAChR [1]): ++ (moderately active ++, 150 nM < Ki < 1,000 nM)
- interaction with α7* nAChR (in words) (α7* nAChR): no activity

SMILES: CN(C)CCOc1cncc(N2CCN(C)CC2)c1 [Compound 21a, N,N-dimethyl-2-{[5-(4-methylpiperazin-1-yl)pyridin-3-yl]oxy}ethanamine]
- Measured activity scale (α4β2* nAChR [1]): +++ (highly active +++, Ki < 150 nM)
- Ki [3]: > 1000 nM

SMILES: CN1[C@@H](CC(=O)c2ccccc2)CCC[C@H]1C[C@H](O)c1ccccc1 [Lobeline 1, lobeline]
- Ki (α4β2* nAChR [5]): 4 to 30 nM

SMILES: CN(C)CCOc1cncc(N2CCOCC2)c1 [Compound 25, N,N-dimethyl-2-{[5-(morpholin-4-yl)pyridin-3-yl]oxy}ethanamine]
- Measured activity scale (α4β2* nAChR [1]): + (inactive +, Ki > 1,000 nM)
- affinity for nAChR subtypes (in words) (α4β2* nAChR [1]): complete loss of affinity

SMILES: CN1CCN(c2cccnc2)CC1 [Compound 13b]
- Ki (α4β2* nAChR [2]; ref 26): 90 nM

SMILES: CN(C)CCOc1cncc(-c2cncc(OCCN(C)C)c2)c1 [Compound 10, 2,2′-([3,3′-bipyridine]-5,5′-diylbis(oxy))bis(N,N-dimethylethanamine)]
- fold decreased α4β2* affinity in comparison with single entity 9 (α4β2* nAChR [1]; versus compound 9): approximately nine-fold
- interaction with α3β4* nAChR (in words) (α3β4* nAChR): no interaction
- interaction with α7* nAChR (in words) (α7* nAChR): no interaction

SMILES: CN1CCCN(c2cccnc2)CC1 [Compound 12b]
- IC50 (α4β2* nAChR [2]; read-out: α4β2* (IC50), printed as IC50 in Ki column): 150 nM

SMILES: CN(C)CCOc1cncc(N2CCCN(C)CC2)c1 [Compound 19a, N,N-dimethyl-2-((5-(4-methyl-1,4-diazepan-1-yl)pyridin-3-yl)oxy)ethanamine]
- Ki (α4β2* nAChR [1]): 6.9 nM
- Measured activity scale (α4β2* nAChR [1]): ++ (moderately active ++, 150 nM < Ki < 1,000 nM)
